Values of other authors, collected in patent US10300042B2, “Apremilast for the treatment of a liver disease or a liver function abnormality” (Celgene Corporation, priority 2014, dated 2019).

Tested on: alanine aminotransferase and/or aspartate aminotransferase
Conditions: animal models and human studies; cited from earlier work

CC(=O)CCCCn1c(=O)c2c(ncn2C)n(C)c1=O [Pentoxifylline]
Liver Function Tests abnormalities (ALT, AST levels): decreasing levels of alanine aminotransferase and/or aspartate aminotransferase
